Common to all, as to assay type: physicochemical
Series [1] can be described thus: Antioxidant activity assessed as hydroxyl radical scavenging activity by measuring relative rate constant (kAOx/kST ratio) using DMPO spin trap by ESR spin-trapping method.
A short description of series [2]: Antioxidant activity assessed as rate constant for singlet oxygen radical scavenging activity using 4-HO-TEMP spin trap by ESR spin-trapping method.
The nature of series [3]: Antioxidant activity assessed as alkoxyl radical scavenging activity by measuring relative rate constant (kAOx/kST ratio) using DMPO spin trap by ESR spin-trapping method.
Series [4] in a line: Antioxidant activity assessed as peroxyl radical scavenging activity by measuring relative rate constant (kAOx/kST ratio) using CYPMPO spin trap by ESR spin-trapping method.
Series [5] is described as follows: Antioxidant activity assessed as superoxide anion radical scavenging activity by measuring relative rate constant (kAOx/kST ratio) using CYPMPO spin trap by ESR spin-trapping method.
Series [6] is described as follows: Antioxidant activity assessed as rate constant for hydroxyl radical scavenging activity using DMPO spin trap by ESR spin-trapping method.
Series [7] can be described thus: Antioxidant activity assessed as singlet oxygen radical scavenging activity by measuring relative rate constant (kAOx/kST ratio) using 4-HO-TEMP spin trap by ESR spin-trapping method.
The nature of series [8]: Antioxidant activity assessed as rate constant for superoxide anion radical scavenging activity using CYPMPO spin trap by ESR spin-trapping method.
Series [9] can be described thus: Antioxidant activity assessed as rate constant for alkoxyl radical scavenging activity using DMPO spin trap by ESR spin-trapping method.
Series [10] in a line: Antioxidant activity assessed as methyl radical scavenging activity by measuring relative rate constant (kAOx/kST ratio) using DMPO spin trap by ESR spin-trapping method.
The nature of series [11]: Antioxidant activity assessed as rate constant for methyl radical scavenging activity using DMPO spin trap by ESR spin-trapping method.

The structures appear in SMILES notation.

On to `NC(Cc1ccc(O)c(O)c1)C(=O)O` (racemic), for which the Ratio in [1] is 14.7; in series [3] it was 28.1; in series [4], 32.5; in series [5], 687; in series [7] it was 84.4; in series [10] it was 1.82. In addition, the K in series [2] came out at 7.59 ×10⁶ /M/s; in series [6], 4.11 ×10¹⁰ /M/s; in [8] it was 3.3 ×10⁴ /M/s; in series [9], 3.57 ×10⁴ /M/s; in series [11], 2.55 ×10⁷ /M/s.

On to `N[C@@H](Cc1ccc(O)c(O)c1)C(=O)O` [LEVODOPA], for which the Ratio in series [1] is on record as 0.91; in [3] it was 27.4; in series [4], 19.3; in [5] it was 4308; in series [7], 215; in series [10], 1.85. Moreover, the K worked out at 1.93 ×10⁷ /M/s in [2]; 2.55 ×10⁹ /M/s in series [6]; 2.07 ×10⁵ /M/s in [8]; 3.48 ×10⁴ /M/s in series [9]; 2.59 ×10⁷ /M/s in series [11].

For the origin of these results see ChEMBL document CHEMBL3399997 (Bioorg Med Chem Lett, 2015).
